Measured values as given in patent US20190365784A1, “USE OF BRASSINOSTEROID ANALOGS FOR THE TREATMENT OF DERMAL DISORDERS BY SELECTIVELY MODULATING LIVER X RECEPTORS (LXR) AND DERMAL DISEASE TREATMENT BY BRASSINOSTEROID ANALOGS ACTING AS SELECTIVE LIVER X RECEPTOR (LXR) MODULATORS” (CONSEJO NACIONAL DE INVESTIGACIONES CIENTÍFICAS Y TÉCNICAS …, priority 2015, published 2019).

Legend:
Assay type in all cases: cell-based, human
[1] = test system: IL-8; test: IL-8 expression in UV-irradiated HaCaT cells (real time PCR); conditions: 10 uM, 24 h after UV, normalized to GAPDH
Protocol: (§1) HaCaT cells—a human immortalized keratinocyte cell line—were exposed to 15 J/m^2 UVB (254 nm) irradiation. Twenty four hours after irradiation, the cells were harvested and RNA isolated to assess the expression of LXR-alpha, LXR-beta, ABCA1, TNF-alpha, IL-6, and IL-8 genes. HaCaT cells were cultured in DMEM supplemented with 10% (v/v) fetal bovine serum, penicillin (100 U/mL), streptomycin ([…]) and glutamine (2 mM). […] The expressions of ABCA1, TNF-alpha, IL-6, IL-8, LXR-alpha, and LXR-beta were normalized according to glyceraldehyde-3-phosphate dehydrogenase (GAPDH) expression. The results of three independent assays, carried out in duplicate for each condition, are reported.

[2] = test system: ABCA1; test: ABCA1 expression in HaCaT cells (real time PCR); conditions: HaCaT; 10 uM; 24 h after UV irradiation
Protocol: as §1, with “HaCaT cells—a human immortalized keratinocyte cell line—were exposed to 15 J/m^2 UVB (254 nm) irradiation.” left out

[3] = test system: ABCG1; test: ABCG1 expression in HL-60 cells (real time PCR); conditions: 10 uM, 6 h
Protocol: To investigate the effects of Compounds I and II on the expression of three genes involved in lipid metabolism [fatty acid synthase (FAS); and two ATP-dependent cholesterol and phospholipid transporters, such as ABCA1 and ABCG1], human promyelocytic leukemia cells (HL-60) that endogenously express LXR-alpha and LXR-beta were incubated in the presence of either Comp I or Comp II (10 uM), or GW3965 (1 uM) for 6 h. mRNA levels for FAS, ABCA1 and ABCG1 were determined by real time PCR and results were normalized to GAPDH expression. HL-60 (10^6 cells/well) were cultured in RPMI medium supplemented with 5% (v/v) fetal bovine serum, penicillin (100 IU/mL), streptomycin (100 ug/mL) y cyprofloxacin (0.4 ug/mL). […] To obtain RNA, at the end of the incubation the cells were collected by centrifugation at 1,000 rpm for 2 min, washed with phosphate buffered saline, and lysed in 300 ul TRIZOL (Invitrogen). RNA samples were suspended in […] of RNAse free water, and their concentration determined (NanoDrop spectrophotometer). […] To obtain cDNA, 1 ug of total RNA was denatured by incubating for 5 min at 70° C., before the addition of a mixture containing 0.5 ug oligo-dT primers and 25 ng/ml of random primers (Invitrogen), 1.0 mM dNTPs (Invitrogen), and 200 U M-MLV reverse transcriptase (Promega); after this the mixture was retrotranscribed at 37° C. for 60 min, followed by an incubation at 95° C. for 5 min to inactivate the enzyme. For the real time PCR amplification (Stratagene Thermal Cycler), cDNA samples were diluted 1/5 to 1/10 depending on the target amplification product. Calibration curves were obtained by use of eight successive 1:2 sample dilutions. Amplifications were carried out in a 25 ul final volume (5 ul cDNA sample plus 20 ul of reaction mixture) in the presence of either 3, 4 or 5 mM MgCl2 (depending on the amplified sequence), 0.25 mM dNTPs (Invitrogen), 1.25 U Taq polymerase (Invitrogen), 1 μM of the specific primers according to the target amplification sequence, and 0.025 μl SYBR Green (Roche). […]

[4] = test system: ABCA1; test: ABCA1 expression in HepG2 cells (real time PCR); conditions: 1 uM, 3 uM and 10 uM, 6 h

| SMILES | IL-8 expression versus DMSO-treated cells [1] | ABCA1 expression versus DMSO-treated cells [2] | effect on ABCG1 expression [3] | induction of ABCA1 expression [4] |
| --- | --- | --- | --- | --- |
| CC[C@@H](C(C)C)[C@H](O)[C@@H](O)[C@@H](C)[C@H]1CC[C@H]2[C@@H]3CCC4=CC(=O)CC[C@]4(C)[C@H]3CC[C@]12C [Compound I, (22S,23S)-22,23-dihydroxystigmast-4-en-3-one] | significantly lower | marginally induced | none of the test compounds significantly affected | did not induce |
| CC[C@@H](C(C)C)[C@H](O)[C@@H](O)[C@@H](C)[C@H]1CC[C@H]2[C@@H]3CCC4=CC(=O)C=C[C@]4(C)[C@H]3CC[C@]12C [Compound II, (22S,23S)-22,23-dihydroxystigmasta-1,4-dien-3-one] | significantly lower | marginally induced | none of the test compounds significantly affected | did not induce |
